Measured values taken from patent US10501479B2, “Benzenesulfonyl-asymmetric ureas and medical uses thereof” (HELSINN HEALTHCARE SA, priority 2016, dated 2019).

Columns and labels:
Assay type in all cases: cell-based
[1] = biological target: T1, recombinant human ghrelin receptor (HEK293/GRLN) (Homo sapiens, UniProt Q92847); assay: Ghrelin inverse agonist potency (EC50) with IP-1 (IP-One HTRF) assay; conditions: ghrelin inverse agonist potency, IP-1 assay; read-out: Activity EC50
T1 construct: expressed in transfected cells
T1 sequence (Q92847 whole entry): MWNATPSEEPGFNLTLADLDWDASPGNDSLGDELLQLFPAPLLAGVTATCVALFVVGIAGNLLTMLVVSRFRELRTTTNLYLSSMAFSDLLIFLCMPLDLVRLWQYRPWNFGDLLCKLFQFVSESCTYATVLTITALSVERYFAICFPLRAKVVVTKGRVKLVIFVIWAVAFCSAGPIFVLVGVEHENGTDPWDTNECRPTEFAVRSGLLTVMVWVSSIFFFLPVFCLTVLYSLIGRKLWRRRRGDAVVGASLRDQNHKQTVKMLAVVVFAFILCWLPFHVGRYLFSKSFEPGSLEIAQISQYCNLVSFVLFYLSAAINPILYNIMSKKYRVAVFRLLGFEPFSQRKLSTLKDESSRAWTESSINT
How it was run: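 HEK293/GRLN cells were seeded 18-22 hours before the test, then exposed to compound in stimulation buffer for 1 hour at 37° C, 5% CO2. IP-1 was detected by IP-One HTRF (IP1-d2 plus Tb-cryptate, 1 hour RT), reading 620 and 665 nm; the inverse agonist EC50 was derived from this.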

[2] = biological target: T2, GHSR-1a (HEK293/GHSR1a cell line) (Homo sapiens, UniProt Q92847); assay: Ghrelin agonist potency (EC50) with calcium FLIPR assay; conditions: ghrelin agonist potency, read-out: Activity EC50/EMax
T2 construct: expressed in transfected cells; host or cells: HEK293/GHSR1a cell line
T2 sequence (Q92847 whole entry): as above
How it was run: (§1)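 Cells seeded 24 h before the run were loaded with calcium dye for 30-60 min at room temperature or 37° C. For agonism, compound was added at t=20 sec and the calcium signal followed for 2 minutes. For antagonism, compound plus ghrelin (10 nM) went on at t=20 sec, and IC50 reflected the drop in ghrelin response.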

[3] = biological target: T2, GHSR-1a (HEK293/GHSR1a cell line); assay: Ghrelin antagonist potency (IC50) with calcium FLIPR assay, ghrelin 10 nM; conditions: ghrelin antagonist potency, read-out: Activity IC50
How it was run: as §1

| Structure (SMILES) | EC50 [1] [nM] | EC50 [2] [nM] | IC50 [3] [nM] |
| --- | --- | --- | --- |
| CC(NC(=O)Nc1ccc2c(c1)S(=O)(=O)C(c1ccc3c(c1)CNC3)C2=O)c1ccccc1 (stereo not drawn) [H1522, 1-(2-(isoindolin-5-yl)-1,1-dioxido-3-oxo-2,3-dihydrobenzo[b]thiophen-6-yl)-3-(1-phenylethyl)urea] | 1890 | > 30000 | 3850 |
| COc1cc(S(=O)(=O)Cc2ccc3c(c2)CC(C)NC3)ccc1NC(=O)N(O)C(C)c1ccccc1 (stereo not drawn) [H1524, 1-hydroxy-3-(2-methoxy-4-(((3-methyl-1,2,3,4-tetrahydroisoquinolin-6-yl)methyl)sulfonyl)phenyl)-1-(1-phenylethyl)urea] | 12.6 | > 30000 | 9.77 |
| COc1cc(S(=O)(=O)Cc2ccc3c(c2)CCN(C)C3)ccc1NC(=O)N(O)C(C)c1ccccc1 (stereo not drawn) [H1525, 1-hydroxy-3-(2-methoxy-4-(((2-methyl-1,2,3,4-tetrahydroisoquinolin-6-yl)methyl)sulfonyl)phenyl)-1-(1-phenylethyl)urea] | 25.5 | > 30000 | 37.4 |
| CC(NC(=O)Nc1ccc(S(=O)(=O)Cc2ccc3c(c2)CNC3)cc1-c1ccnn1C)c1ccccc1 (stereo not drawn) [H1528, 1-(4-((isoindolin-5-ylmethyl)sulfonyl)-2-(1-methyl-1H-pyrazol-5-yl)phenyl)-3-(1-phenylethyl)urea] | 83.3 | > 30000 | 581 |
| CNC(=O)c1cc(NC(=O)NC(C)c2ccccc2)ccc1S(=O)(=O)Cc1ccc2c(c1)CNC2 (stereo not drawn) [H1529, 2-((isoindolin-5-ylmethyl)sulfonyl)-N-methyl-5-(3-(1-phenylethyl)ureido)benzamide] | 27.8 | > 30000 | 47.4 |
| CC(NC(=O)Nc1ccc(S(=O)(=O)Cc2ccc3c(c2)CNC3)c(C(=O)O)c1)c1ccccc1 (stereo not drawn) [H1530, 2-((isoindolin-5-ylmethyl)sulfonyl)-5-(3-(1-phenylethyl)ureido)benzoic acid] | 784 | > 30000 | 614 |
| CC(NC(=O)Nc1ccc(S(=O)(=O)Cc2ccc3c(c2)CNC3)c(C(N)=O)c1)c1ccccc1 (stereo not drawn) [H1531, 2-((isoindolin-5-ylmethyl)sulfonyl)-5-(3-(1-phenylethyl)ureido)benzamide] | 444 | > 30000 | 418 |
| CC(NC(=O)Nc1ccc(S(=O)(=O)Cc2ccc3c(c2)CNC3)cc1-c1cn[nH]c1)c1ccccc1 (stereo not drawn) [H1532, 1-(4-((isoindolin-5-ylmethyl)sulfonyl)-2-(1H-pyrazol-4-yl)phenyl)-3-(1-phenylethyl)urea] | 69.5 | > 30000 | 1660 |
| CC(NC(=O)Nc1ccc(S(=O)(=O)Cc2ccc3c(c2)CNC3)cc1-c1cccnc1)c1ccccc1 (stereo not drawn) [H1533, 1-(4-((isoindolin-5-ylmethyl)sulfonyl)-2-(pyridin-3-yl)phenyl)-3-(1-phenylethyl)urea] | 76.2 | > 30000 | 1700 |
| CC(NC(=O)Nc1ccc(S(=O)(=O)Cc2ccc3c(c2)CNC3)cc1-c1ccncc1)c1ccccc1 (stereo not drawn) [H1534, 1-(4-((isoindolin-5-ylmethyl)sulfonyl)-2-(pyridin-4-yl)phenyl)-3-(1-phenylethyl)urea] | 89.5 | > 30000 | 1660 |
| CC(NC(=O)Nc1ccc(S(=O)(=O)Cc2ccc3c(c2)CNC3)cc1-c1cnn(C)c1)c1ccccc1 (stereo not drawn) [H1535, 1-(4-((isoindolin-5-ylmethyl)sulfonyl)-2-(1-methyl-1H-pyrazol-4-yl)phenyl)-3-(1-phenylethyl)urea] | 21.4 | > 30000 | 493 |
| C[C@@H](NC(=O)Nc1ccc(S(=O)(=O)Cc2ccc3c(c2)C(F)CN(C)C3)cc1)c1ccccc1 (stereo partly drawn) [H1539, 1-(4-(((4-fluoro-2-methyl-1,2,3,4-tetrahydroisoquinolin-6-yl)methyl)sulfonyl)phenyl)-3-((R)-1-phenylethyl)urea] | 263 | > 30000 | 8050 |
